# Results published in patent publication US20070213291A1, “Therapeutically useful synthetic oligonucleotides” (priority 1999, published 2007).
# Columns and labels:
# [1] = system: CF-51 canine mammary gland cancer cells; assay: Inhibition of CF-51 cell proliferation (MTT); type: cell-based; conditions: 100 μg/ml, 48 h, 5×10^5 cells/ml
# Protocol: (§1) Cells were seeded in 6 (1 ml/well), 24 (0.5 ml/well) or 96 (0.1 ml/well) well flat-bottom microplates and were maintained at 37° C. in a 5% CO2 atmosphere. Unless stated otherwise, 2.5×10^5 cells/ml were incubated with 0 μg/ml (control) and 100 μg/ml (treated) of 2 to 45 base sequences containing A, C, G and T for 48 h.
# (§2) Cell proliferation was measured using dimethylthiazol-diphenyl-tetrazolium (MTT) reduction (Mosman et al. J. Immunol. Methods 65:55, 1983). MTT was measured at a wavelength of 570 nm using a multiplate spectrophotometer reader (ELX800, Bio-TEK Instruments Inc., Winooski, Vt.).
# (§3) D-17 canine osteosarcoma cells and CF-51 canine mammary gland cancer cells are solid tumor models. D-17 canine osteosarcoma cells (5×10^5 cells/ml) (Table 20) and CF-51 canine mammary gland cancer cells (5×10^5 cells/ml) (Table 21) were incubated with 6, 9, 17, 27 and 33 base GT-sequences and with a 15 base ACG sequence.
# [2] = system: EL-4 murine T lymphoma cells; assay: Inhibition of EL-4 cell proliferation (MTT); type: cell-based; conditions: 100 μg/ml, 48 h
# Protocol: as §1, §2
# EL-4 murine lymphoma T cells are a suspension tumor model. EL-4 murine lymphoma T cells were incubated with 6, 18, 27 and 33 base GT sequences and with a 15 base ACG sequence (Table 18).
# [3] = system: Jurkat human leukemia T cells; assay: Cell cycle stage in Jurkat cells (propidium iodide flow cytometry); type: cell-based; conditions: Jurkat
# Outline: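 Exponentially growing Jurkat cells were exposed for 24 h to 2–45-base A/C/G/T oligonucleotides, or at 1×10^6 cells/ml to 6-base GT and AC strands, alone (heated 10 min, 65 °C) or hybridized 1:1. Detergent-, trypsin-, RNase- and spermine-treated nuclei were propidium iodide-stained and scored for G0/G1, early/mid/late S and G2/M by doublet-discriminating flow cytometry.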
# caspase 3 [4] = assay: Active caspase 3 by FITC-conjugated antibody flow cytometry; type: cell-based, human; conditions: Jurkat, 72 h, 100 μg/ml, cytometric (FIG. 2A)
# Protocol: (§4) To determine caspase activation, control and treated cells are washed, fixed, permeabilized and incubated with an FITC-conjugated antibody that recognizes the active form of the caspase (Pharmingen, San Diego, Calif.) using the conditions recommended by the manufacturer. Fluorescence associated with active caspase 3 is analyzed by flow cytometry on a FACSCALIBUR using the program CellQUEST (Becton Dickinson). Alternatively, caspase activation is determined colorimetrically using an assay based on the cleavage of a caspase-specific peptide conjugated to the color reporter molecule p-nitroanilide, which can be quantitated spectrophotometrically at a wavelength of 405 nm.
# (§5) Jurkat T cell leukemia cells were incubated for 72 h with 33 base GT SEQ ID NO:66; 11 base GT SEQ ID NO:81 (bases 1-11 of GT SEQ ID NO:66), 11 base GT SEQ ID NO:82 (bases 12-22 of GT SEQ ID NO:66), 11 base GT SEQ ID NO:83 (bases 23-33 of GT SEQ ID NO:66) and 15 base ACG SEQ ID NO:67. Active caspase 3 (17-22 kDa) was determined using FITC conjugated antibody (Clone: C92-605) as in Example 28.
# [5] = system: D-17 canine osteosarcoma cells; assay: Inhibition of D-17 cell proliferation (MTT); type: cell-based; conditions: 100 μg/ml, 48 h, 5×10^5 cells/ml
# Protocol: as §1, §2, §3
# [6] = system: Jurkat human leukemia T cells; assay: Inhibition of Jurkat human leukemia T cell proliferation (MTT reduction); type: cell-based; conditions: 100 μg/ml sequence, 48 h, 2.5×10^5 cells/ml
# Outline: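 Jurkat cells at 2.5×10^5 cells/ml exposed to 100 μg/ml of 2–45-base A/C/G/T sequences (0 μg/ml control) for 48 h, 37° C, 5% CO2. Viability by MTT reduction read at 570 nm.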
# caspase 3 [7] = assay: Caspase 3 activation, colorimetric (p-nitroanilide peptide cleavage); type: cell-based, human; conditions: Jurkat, 72 h, 100 μg/ml
# Protocol: as §4, §5
# Caspase 3 activation also was determined colorimetrically as in Example 28.
# Jurkat T cell leukemia cells were incubated for 72 h with 6 base GT SEQ ID NO:25. Caspase 3 activation was determined colorimetrically as in Example 28.
# [8] = system: Jurkat human leukemia T cells; assay: Apoptosis by phosphatidylserine/annexin V-FITC flow cytometry; type: cell-based; conditions: M. phlei murA derived sequences
# Outline: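 Jurkat cells were exposed to 3–7-base oligonucleotides (GT, ACGT, AG, GG, AGT, CGT sequences) at 50 μM. Separately, 6-base GT and complementary AC sequences, alone or hybridized 1:1 (10 min, 65 °C), were applied for 24 h. Phosphatidylserine exposure was quantified by flow cytometry with FITC-annexin V.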
# [9] = Melting temperature (Tm) of sequences; type: physicochemical
Sequence,% INHIBITION of CF-51 canine mammary gland cancer cell proliferation [1],% INHIBITION of EL-4 murine T lymphoma cell proliferation [2],"% of cells in phase: G0/G1 ([3]; 24 h, 100 μg/ml)","% of cells in phase: G2/M ([3]; 24 h, 100 μg/ml)","% of cells in phase: SE ([3]; 24 h, 100 μg/ml)","% of cells in phase: SL ([3]; 24 h, 100 μg/ml)","% of cells in phase: SM ([3]; 24 h, 100 μg/ml)","Arrest (cell cycle) ([3]; 24 h, 100 μg/ml)",cell cycle arrest ([3]; M. phlei murA derived sequences),processing of inactive pro-caspase 3 to active caspase 3 (caspase 3 [4]),% INHIBITION of D-17 canine osteosarcoma cell proliferation [5],% INHIBITION of Jurkat human leukemia T cell proliferation [6],caspase 3 activity greater than in control cells (caspase 3 [7]),% at cells in apoptosis [8],melting temperature (Tm) [9]
"AACCACAAGCCCAAC (DNA, backbone not given here) [SEQ ID NO:67]",20%,−6%,39.6%,24.6%,13.5%,9.5%,12.8%,None,No,did not induce processing of inactive pro-caspase 3 to active caspase 3,20%,4%,approximately the same as in control cells,0%,–
GGGTGGGGGTGG [SEQ ID NO:68],–,–,–,–,–,–,–,–,–,–,–,18%,–,–,56.8 °C
GGGTGGGGGTGGGGGTGG [SEQ ID NO:69],–,–,–,–,–,–,–,–,–,–,–,5%,–,–,76.3 °C
